Key:
HeLa = experiment: Antiproliferative activity against human HeLa cells by SRB assay; format: functional, cell-based
[1] = Half life in phosphate buffer saline; format: physicochemical; conditions: phosphate buffered saline

| Structure (SMILES) | IC50 (HeLa) [µM] | half-life [1] [h] |
| --- | --- | --- |
| CC(=O)O[C@@H]1[C@H]2[C@@H]3C(=O)C(O)=C4C[C@@H]5O[C@@H]5[C@H](OC(C)=O)[C@]4(C)[C@H]3[C@H](OC(C)=O)[C@H](OC(C)=O)[C@]2(C)[C@@H]2[C@@H]1[C@]1(C)C(=C[C@H]2C)OC(=O)[C@@]1(C)O | 3.4 | – |
| CC(=O)O[C@H]1[C@@H]2[C@H]([C@H](C)C=C3OC(=O)[C@@](C)(O)[C@@]32C)[C@]2(C)[C@@H]1C1=C(O)C(=O)[C@H]3C[C@@H]4O[C@@H]4[C@H](OC(C)=O)[C@]3(C)[C@H]1[C@H](OC(C)=O)[C@@H]2OC(C)=O | 0.73 | – |
| CC(=O)O[C@@H]1[C@H]2[C@H]3[C@H]([C@H](OC(C)=O)[C@H](OC(C)=O)[C@]2(C)[C@H]2[C@H](C)[C@@H]4O[C@@]45OC(=O)[C@@](C)(O)[C@]5(C)[C@H]12)[C@]1(C)[C@H](C[C@@H]2O[C@@H]2[C@@H]1OC(C)=O)C(=O)[C@@H]3O | – | 9 |
| CC(=O)O[C@@H]1[C@H]2[C@H]3[C@H]([C@H](OC(C)=O)[C@H](OC(C)=O)[C@]2(C)[C@@H]2[C@@H]1[C@]1(C)C(=C[C@H]2C)OC(=O)[C@@]1(C)O)[C@]1(C)[C@H](C[C@@H]2O[C@@H]2[C@@H]1OC(C)=O)C(=O)C3(O)O | 5 | – |
| CC(=O)O[C@@H]1[C@H]2[C@H]3[C@H]([C@H](OC(C)=O)[C@H](OC(C)=O)[C@]2(C)[C@@H]2[C@@H]1[C@]1(C)C(=C[C@@]2(C)OO)OC(=O)[C@@]1(C)O)[C@]1(C)[C@H](C[C@@H]2O[C@@H]2[C@@H]1OC(C)=O)C(=O)[C@@H]3O | > 50 | – |

From ChEMBL document CHEMBL3351965, “Taccalonolide microtubule stabilizers” (Bioorg Med Chem, 2014)
